Assay results taken from patent US20240190890A1, “MK2 INHIBITORS AND USES THEREOF” (Bristol-Myers Squibb Company, priority 2022, published 2024).

Biological target: p38a activated, mitogen-activated protein kinase-activated protein kinase 2 (MAPKAP-K2 or MK2) enzyme (Homo sapiens (Human), UniProt P49137)
Experiment: MK2 Omnia continuous-read kinase assay for compound potency
Type: biochemical
Conditions: [MK-2]=0.4 nM, [ATP]=10 μM, [ST3-Sox]=10 μM; room temperature
In short: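 Continuous Sox-peptide fluorescence read (ex360/em485) every 71 s over 2 h at room temperature. Reactions: 10 μM each of ATP (at apparent Km) and S/T3-Sox, 0.4 nM p38a-activated MK2, pH 7.5 Tris/MgCl2 buffer. Initial rates yield % inhibition and IC50; single-exponential kobs values yield apparent kinact/KI.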

Chain of p38a activated, mitogen-activated protein kinase-activated protein kinase 2 (MAPKAP-K2 or MK2) enzyme (P49137 whole entry): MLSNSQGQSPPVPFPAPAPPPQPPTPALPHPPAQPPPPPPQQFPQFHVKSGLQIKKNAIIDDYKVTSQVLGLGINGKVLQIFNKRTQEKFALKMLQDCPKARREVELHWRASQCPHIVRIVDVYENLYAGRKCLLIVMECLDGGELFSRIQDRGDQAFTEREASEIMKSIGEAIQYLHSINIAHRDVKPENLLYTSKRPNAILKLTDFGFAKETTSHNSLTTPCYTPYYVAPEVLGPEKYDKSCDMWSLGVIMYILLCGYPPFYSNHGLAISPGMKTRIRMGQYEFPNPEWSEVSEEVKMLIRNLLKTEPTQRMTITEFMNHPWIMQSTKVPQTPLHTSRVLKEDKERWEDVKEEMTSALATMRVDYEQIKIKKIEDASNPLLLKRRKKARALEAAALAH

Row | IC50 [nM] | Compound
1 | 18 | C#Cc1cc(-c2ccc3c(ccc4sc5c(c43)NC[C@@H](C)NC5=O)n2)c(C)nn1 [Example I-170, (R)-3-(6-ethynyl-3-methylpyridazin-4-yl)-10-methyl-9,10,11,12-tetrahydro-8H-[1,4]diazepino[5′,6′:4,5]thieno[3,2-f]quinolin-8-one]
2 | 5 | C=Cc1cc(-c2ccc3c(ccc4sc5c(c43)NC[C@@H](C)NC5=O)n2)c(CO)cn1 [Example I-252, (R)-3-(5-(hydroxymethyl)-2-vinylpyridin-4-yl)-10-methyl-9,10,11,12-tetrahydro-8H-[1,4]diazepino[5′,6′:4,5]thieno[3,2-f]quinolin-8-one]
3 | 18 | C[C@@H]1CNc2c(sc3ccc4nc(-c5nc(Cl)ncc5COC5(C)COC5)ccc4c23)C(=O)N1 [Example I-28, (R)-3-(2-chloro-5-(((3-methyloxetan-3-yl)oxy)methyl)pyrimidin-4-yl)-10-methyl-9,10,11,12-tetrahydro-8H-[1,4]diazepino[5′,6′:4,5]thieno[3,2-f]quinolin-8-one]
4 | 839 | C#Cc1cc(-c2ccc3c(ccc4sc5c(c43)NC[C@@H](C)NC5=O)n2)cc(N2CC(F)(F)C2)n1 [Example I-183, (R)-3-(2-(3,3-difluoroazetidin-1-yl)-6-ethynylpyridin-4-yl)-10-methyl-9,10,11,12-tetrahydro-8H-[1,4]diazepino[5′,6′:4,5]thieno[3,2-f]quinolin-8-one]
5 | 360 | C=Cc1cc(-c2ccc3c(ccc4sc5c(c43)NC[C@@H](C)NC5=O)n2)c(OC(F)F)cn1 [Example I-247, (R)-3-(5-(difluoromethoxy)-2-vinylpyridin-4-yl)-10-methyl-9,10,11,12-tetrahydro-8H-[1,4]diazepino[5′,6′:4,5]thieno[3,2-f]quinolin-8-one]
6 | 28 | C=Cc1cc(-c2ccc3c(ccc4sc5c(c43)NC[C@@H](C)NC5=O)n2)c(OCCN2CCCC2)nn1 [Example I-118, (R)-10-methyl-3-(3-(2-(pyrrolidin-1-yl)ethoxy)-6-vinylpyridazin-4-yl)-9,10,11,12-tetrahydro-8H-[1,4]diazepino[5′,6′:4,5]thieno[3,2-f]quinolin-8-one]
7 | 152 | C#Cc1cc(-c2ccc3c(ccc4sc5c(c43)NC[C@@H](C)NC5=O)n2)cc(C)n1 [Example I-112, (R)-3-(2-ethynyl-6-methylpyridin-4-yl)-10-methyl-9,10,11,12-tetrahydro-8H-[1,4]diazepino[5′,6′:4,5]thieno[3,2-f]quinolin-8-one]
8 | 752 | C[C@@H]1CNc2c(sc3ccc4nc(-c5nc(Cl)c(C(F)(F)F)cc5F)ccc4c23)C(=O)N1 [Example I-274, (R)-3-(6-chloro-3-fluoro-5-(trifluoromethyl)pyridin-2-yl)-10-methyl-9,10,11,12-tetrahydro-8H-[1,4]diazepino[5′,6′:4,5]thieno[3,2-f]quinolin-8-one]
9 | 40 | C#Cc1cc(-c2ccc3c(ccc4sc5c(c43)NC[C@@H](C)NC5=O)n2)cc(CN2CCC(OC)CC2)n1 [Example I-122, (R)-3-(2-ethynyl-6-((4-methoxypiperidin-1-yl)methyl)pyridin-4-yl)-10-methyl-9,10,11,12-tetrahydro-8H-[1,4]diazepino[5′,6′:4,5]thieno[3,2-f]quinolin-8-one]
10 | 44 | C=Cc1nn(C)cc1-c1ccc2c(ccc3sc4c(c32)NC[C@@H](C)NC4=O)n1 [Example I-230, (R)-10-methyl-3-(1-methyl-3-vinyl-1H-pyrazol-4-yl)-9,10,11,12-tetrahydro-8H-[1,4]diazepino[5′,6′:4,5]thieno[3,2-f]quinolin-8-one]
11 | 24 | C=Cc1ncc(COC2COC2)c(-c2ccc3c(ccc4sc5c(c43)NC[C@@H](C)NC5=O)n2)n1 [Example I-21, (R)-10-methyl-3-(5-((oxetan-3-yloxy)methyl)-2-vinylpyrimidin-4-yl)-9,10,11,12-tetrahydro-8H-[1,4]diazepino[5′,6′:4,5]thieno[3,2-f]quinolin-8-one]
12 | 2 | C=Cc1cc(-c2ccc3c(ccc4sc5c(c43)NC[C@@H](C)NC5=O)n2)cc(CO)n1 [Example I-99, (R)-3-(2-(hydroxymethyl)-6-vinylpyridin-4-yl)-10-methyl-9,10,11,12-tetrahydro-8H-[1,4]diazepino[5′,6′:4,5]thieno[3,2-f]quinolin-8-one]
13 | 233 | C#Cc1ncc(OC)c(-c2ccc3c(ccc4sc5c(c43)NC[C@@H](C)NC5=O)n2)n1 [Example I-42, (R)-3-(2-ethynyl-5-methoxypyrimidin-4-yl)-10-methyl-9,10,11,12-tetrahydro-8H-[1,4]diazepino[5′,6′:4,5]thieno[3,2-f]quinolin-8-one]
14 | 83 | C#Cc1cncc(-c2ccc3c(ccc4sc5c(c43)NC[C@@H](C)NC5=O)n2)c1 [Example I-83, (R)-3-(5-ethynylpyridin-3-yl)-10-methyl-9,10,11,12-tetrahydro-8H-[1,4]diazepino[5′,6′:4,5]thieno[3,2-f]quinolin-8-one]
15 | 1000 | C=Cc1nnc(C)n1-c1ccc2c(ccc3sc4c(c32)NC[C@@H](C)NC4=O)n1 [Example I-223, (R)-10-methyl-3-(3-methyl-5-vinyl-4H-1,2,4-triazol-4-yl)-9,10,11,12-tetrahydro-8H-[1,4]diazepino[5′,6′:4,5]thieno[3,2-f]quinolin-8-one]
16 | 6 | C=Cc1cc(-c2ccc3c(ccc4sc5c(c43)NC[C@@H](C)NC5=O)n2)c(COC)cn1 [Example I-253, (R)-3-(5-(methoxymethyl)-2-vinylpyridin-4-yl)-10-methyl-9,10,11,12-tetrahydro-8H-[1,4]diazepino[5′,6′:4,5]thieno[3,2-f]quinolin-8-one]
17 | 11 | C=Cc1cc(-c2ccc3c(ccc4sc5c(c43)NCC(C)NC5=O)n2)cc(N2CC3CC2CO3)n1 (racemic) [Example I-216, rac-(10R)-3-(2-(2-oxa-5-azabicyclo[2.2.1]heptan-5-yl)-6-vinylpyridin-4-yl)-10-methyl-9,10,11,12-tetrahydro-8H-[1,4]diazepino[5′,6′:4,5]thieno[3,2-f]quinolin-8-one]
18 | 13 | C=Cc1cc(-c2ccc3c(ccc4sc5c(c43)NC[C@@H](C)NC5=O)n2)c(CC)cn1 [Example I-195, (R)-3-(5-ethyl-2-vinylpyridin-4-yl)-10-methyl-9,10,11,12-tetrahydro-8H-[1,4]diazepino[5′,6′:4,5]thieno[3,2-f]quinolin-8-one]
19 | 275 | C=Cc1cc(-c2ccc3c(ccc4sc5c(c43)NC[C@@H](C)NC5=O)n2)c(CN2CC(F)(F)C2)cn1 [Example I-211, (R)-3-(5-((3,3-difluoroazetidin-1-yl)methyl)-2-vinylpyridin-4-yl)-10-methyl-9,10,11,12-tetrahydro-8H-[1,4]diazepino[5′,6′:4,5]thieno[3,2-f]quinolin-8-one]
20 | 8 | C=Cc1cc(-c2ccc3c(ccc4sc5c(c43)NC[C@@H](C)NC5=O)n2)cc(C2CCN(C)CC2)n1 [Example I-106, (R)-10-methyl-3-(2-(1-methylpiperidin-4-yl)-6-vinylpyridin-4-yl)-9,10,11,12-tetrahydro-8H-[1,4]diazepino[5′,6′:4,5]thieno[3,2-f]quinolin-8-one]
21 | 26 | C[C@@H]1CNc2c(sc3ccc4nc(-c5cc(N6CCN(C)CC6)nc(Cl)n5)ccc4c23)C(=O)N1 [Example I-16, (R)-3-(2-chloro-6-(4-methylpiperazin-1-yl)pyrimidin-4-yl)-10-methyl-9,10,11,12-tetrahydro-8H-[1,4]diazepino[5′,6′:4,5]thieno[3,2-f]quinolin-8-one]
22 | 181 | C=Cc1nc(-c2ccc3c(ccc4sc5c(c43)NC[C@@H](C)NC5=O)n2)cnc1C [Example I-166, (R)-10-methyl-3-(5-methyl-6-vinylpyrazin-2-yl)-9,10,11,12-tetrahydro-8H-[1,4]diazepino[5′,6′:4,5]thieno[3,2-f]quinolin-8-one]
23 | 61 | C=Cc1cccc(-c2ccc3c(ccc4sc5c(c43)NC[C@@H](C)NC5=O)n2)n1 [Example I-54, (R)-10-methyl-3-(6-vinylpyridin-2-yl)-9,10,11,12-tetrahydro-8H-[1,4]diazepino[5′,6′:4,5]thieno[3,2-f]quinolin-8-one]
24 | 568 | C#Cc1ncc(CO)c(-c2ccc3c(ccc4sc5c(c43)NC[C@@H](C)NC5=O)n2)n1 [Example I-79, (R)-3-(2-ethynyl-5-(hydroxymethyl)pyrimidin-4-yl)-10-methyl-9,10,11,12-tetrahydro-8H-[1,4]diazepino[5′,6′:4,5]thieno[3,2-f]quinolin-8-one]
25 | 42 | C#Cc1cc(-c2ccc3c(ccc4sc5c(c43)NC[C@@H](C)NC5=O)n2)cc(N2CCN(C)CC2)n1 [Example I-95, (R)-3-(2-ethynyl-6-(4-methylpiperazin-1-yl)pyridin-4-yl)-10-methyl-9,10,11,12-tetrahydro-8H-[1,4]diazepino[5′,6′:4,5]thieno[3,2-f]quinolin-8-one]
26 | 285 | C=Cc1nc(-c2ccc3c(ccc4sc5c(c43)NC[C@@H](C)NC5=O)n2)nn1C [Example I-208, (R)-10-methyl-3-(1-methyl-5-vinyl-1H-1,2,4-triazol-3-yl)-9,10,11,12-tetrahydro-8H-[1,4]diazepino[5′,6′:4,5]thieno[3,2-f]quinolin-8-one]
27 | 97 | C[C@@H]1CNc2c(sc3ccc4nc(-n5ccnc5Cl)ccc4c23)C(=O)N1 [Example I-205, (R)-3-(2-chloro-1H-imidazol-1-yl)-10-methyl-9,10,11,12-tetrahydro-8H-[1,4]diazepino[5′,6′:4,5]thieno[3,2-f]quinolin-8-one]

Row | Compound | IC50 [nM]
28 | (R)-3-(2-chloro-5-(ethoxymethyl)pyrimidin-4-yl)-10-methyl-9,10,11,12-tetrahydro-8H-[1,4]diazepino[5′,6′:4,5]thieno[3,2-f]quinolin- [Example I-3] | 107
